Reference: ChEMBL document CHEMBL1137449, “A refined agonist pharmacophore for protease activated receptor 2” (Bioorg Med Chem Lett, 2007)
Square brackets hold non-standard residues; d marks the D form. Peptide text beside a SMILES is read from it. * marks the point of attachment. X1 = CC[C@H](C)[C@H](N)C(=O)NC(=O)[C@H](Cc1ccc([N+](=O)[O-])cc1)N*; Phe(4-NO2) = N[C@@H](Cc1ccc([N+](=O)[O-])cc1)C(=O)O; Phe(4-N3) = [N-]=[N+]=Nc1ccc(C[C@H](N)C(=O)O)cc1; Phe(3,4-(OMe)2) = COc1ccc(C[C@H](N)C(=O)O)cc1OC; Phe(3,4-Cl2) = N[C@@H](Cc1ccc(Cl)c(Cl)c1)C(=O)O; Phe(4-COOH) = N[C@@H](Cc1ccc(C(=O)O)cc1)C(=O)O; Phe(3-CN) = N#Cc1cccc(C[C@H](N)C(=O)O)c1; Phe(3-OMe) = COc1cccc(C[C@H](N)C(=O)O)c1; Phe(4-CN) = N#Cc1ccc(C[C@H](N)C(=O)O)cc1; Phe(4-Cl) = N[C@@H](Cc1ccc(Cl)cc1)C(=O)O; Phe(4-F) = N[C@@H](Cc1ccc(F)cc1)C(=O)O; Phe(4-I) = N[C@@H](Cc1ccc(I)cc1)C(=O)O; 1Nal = N[C@@H](Cc1cccc2ccccc12)C(=O)O; Bta = N[C@@H](Cc1csc2ccccc12)C(=O)O; hTyr = N[C@@H](CCc1ccc(O)cc1)C(=O)O; hPhe = N[C@@H](CCc1ccccc1)C(=O)O; 3Pal = N[C@@H](Cc1cccnc1)C(=O)O; 4Pal = N[C@@H](Cc1ccncc1)C(=O)O; Cha = N[C@@H](CC1CCCCC1)C(=O)O; Nle = CCCC[C@H](N)C(=O)O; 2Furoyl = O=C(c1ccco1)*

These compounds were tested against T1, Proteinase-activated receptor 2 (Homo sapiens, UniProt P55085) (assay: Agonist activity at PAR2 expressed in human HT29 cells assessed as intracellular calcium release).
T1 sequence (P55085 whole entry): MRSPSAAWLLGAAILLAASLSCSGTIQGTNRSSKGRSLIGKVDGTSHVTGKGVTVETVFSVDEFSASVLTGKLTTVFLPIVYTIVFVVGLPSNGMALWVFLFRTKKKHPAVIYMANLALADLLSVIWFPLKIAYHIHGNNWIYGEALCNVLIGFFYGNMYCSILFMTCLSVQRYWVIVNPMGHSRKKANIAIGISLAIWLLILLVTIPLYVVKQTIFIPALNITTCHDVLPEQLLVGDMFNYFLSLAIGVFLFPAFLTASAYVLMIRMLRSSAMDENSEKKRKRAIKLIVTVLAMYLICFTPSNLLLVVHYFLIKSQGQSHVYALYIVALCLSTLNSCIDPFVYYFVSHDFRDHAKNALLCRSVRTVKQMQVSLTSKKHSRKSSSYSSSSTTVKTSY
Type: functional, cell-based, HT-29

| EC50 [µM] | Compound |
| --- | --- |
| 2.8 | CC[C@H](C)[C@H](NC(=O)[C@H](COc1ccc([N+](=O)[O-])cc1)NC(=O)[C@H](CCCNC(=N)N)NC(=O)CNC(=O)[C@@H](NC(=O)[C@H](CC(C)C)NC(=O)[C@@H](N)CO)[C@@H](C)CC)C(N)=O |
| 0.2 | CC[C@H](C)[C@H](N)C(=O)NC(=O)[C@H](Cc1ccc([N+](=O)[O-])cc1)NC(=O)[C@H](CCCNC(=N)N)NC(=O)CNC(=O)[C@@H](NC(=O)[C@H](CC(C)C)NC(=O)c1ccco1)[C@@H](C)CC (2Furoyl-LIGR-X1) |
| 0.17 | CC[C@H](C)[C@H](NC(=O)[C@H](CC(C)C)NC(=O)c1ccco1)C(=O)NCC(=O)N[C@@H](CCCNC(=N)N)C(=O)N[C@@H](Cc1ccc([N+](=O)[O-])cc1)C(N)=O (2Furoyl-LIGR[Phe(4-NO2)]-NH2) |
| 1 | CC[C@H](C)[C@H](NC(=O)[C@H](Cc1ccccc1)NC(=O)[C@H](CCCNC(=N)N)NC(=O)CNC(=O)[C@@H](NC(=O)[C@H](CC(C)C)NC(=O)[C@@H](N)CO)[C@@H](C)CC)C(N)=O (H-SLIGRFI-NH2) |
| 0.7 | CC[C@H](C)[C@H](NC(=O)[C@H](CC(C)C)NC(=O)[C@H](CCCN=C(N)N)NC(=O)CNC(=O)[C@@H](NC(=O)[C@H](CC(C)C)NC(=O)[C@@H](N)CO)[C@@H](C)CC)C(N)=O (H-SLIGRLI-NH2) |
| 1.2 | CC[C@H](C)[C@H](NC(=O)[C@H](CC(C)C)NC(=O)[C@@H](N)CO)C(=O)NCC(=O)N[C@@H](CCCNC(=N)N)C(=O)N[C@@H](CC(C)C)C(=O)N[C@@H](CC(C)C)C(N)=O (H-SLIGRLL-NH2) |
| 1.2 | CC[C@H](C)[C@H](NC(=O)[C@H](CC(C)C)NC(=O)[C@@H](N)CO)C(=O)NCC(=O)N[C@@H](CCCNC(=N)N)C(=O)N[C@@H](CC(C)C)C(=O)N[C@@H](Cc1ccc(O)cc1)C(N)=O (H-SLIGRLY-NH2) |
| 1.1 | CC[C@H](C)[C@H](NC(=O)[C@H](CC(C)C)NC(=O)[C@@H](N)CO)C(=O)NCC(=O)N[C@@H](CCCNC(=N)N)C(=O)N[C@@H](CC(C)C)C(=O)N[C@@H](Cc1cccc2ccccc12)C(N)=O (H-SLIGRL[1Nal]-NH2) |
| 3.6 | CC[C@H](C)[C@H](NC(=O)[C@H](CC(C)C)NC(=O)[C@@H](N)CO)C(=O)NCC(=O)N[C@@H](CCCNC(=N)N)C(=O)N[C@@H](CC(C)C)C(=O)N[C@@H](CC1CCCCC1)C(N)=O (H-SLIGRL[Cha]-NH2) |
| 1.2 | CCCC[C@H](NC(=O)[C@H](CC(C)C)NC(=O)[C@H](CCCNC(=N)N)NC(=O)CNC(=O)[C@@H](NC(=O)[C@H](CC(C)C)NC(=O)[C@@H](N)CO)[C@@H](C)CC)C(N)=O (H-SLIGRL[Nle]-NH2) |
| 2 | CC[C@H](C)[C@H](NC(=O)[C@H](CC(C)C)NC(=O)[C@@H](N)CO)C(=O)NCC(=O)N[C@@H](CCCNC(=N)N)C(=O)N[C@@H](CC(C)C)C(=O)N[C@@H](Cc1ccc(F)cc1)C(N)=O (H-SLIGRL[Phe(4-F)]-NH2) |
| 1 | CC[C@H](C)[C@H](NC(=O)[C@H](CC(C)C)NC(=O)[C@@H](N)CO)C(=O)NCC(=O)N[C@@H](CCCNC(=N)N)C(=O)N[C@@H](CC(C)C)C(=O)N[C@@H](CCc1ccccc1)C(N)=O (H-SLIGRL[hPhe]-NH2) |
| 0.6 | CC[C@H](C)[C@H](NC(=O)[C@H](CC(C)C)NC(=O)[C@@H](N)CO)C(=O)NCC(=O)N[C@@H](CCCNC(=N)N)C(=O)N[C@@H](CC(C)C)C(=O)N[C@@H](CCc1ccc(O)cc1)C(N)=O (H-SLIGRL[hTyr]-NH2) |
| 0.4 | CC[C@H](C)[C@H](NC(=O)[C@H](Cc1ccc(O)cc1)NC(=O)[C@H](CCCN=C(N)N)NC(=O)CNC(=O)[C@@H](NC(=O)[C@H](CC(C)C)NC(=O)[C@@H](N)CO)[C@@H](C)CC)C(N)=O (H-SLIGRYI-NH2) |
| 1.1 | CC[C@H](C)[C@H](NC(=O)[C@H](Cc1cccnc1)NC(=O)[C@H](CCCNC(=N)N)NC(=O)CNC(=O)[C@@H](NC(=O)[C@H](CC(C)C)NC(=O)[C@@H](N)CO)[C@@H](C)CC)C(N)=O (H-SLIGR[3Pal]I-NH2) |
| 1.9 | CC[C@H](C)[C@H](NC(=O)[C@H](Cc1ccncc1)NC(=O)[C@H](CCCNC(=N)N)NC(=O)CNC(=O)[C@@H](NC(=O)[C@H](CC(C)C)NC(=O)[C@@H](N)CO)[C@@H](C)CC)C(N)=O (H-SLIGR[4Pal]I-NH2) |
| 0.3 | CC[C@H](C)[C@H](NC(=O)[C@H](Cc1csc2ccccc12)NC(=O)[C@H](CCCNC(=N)N)NC(=O)CNC(=O)[C@@H](NC(=O)[C@H](CC(C)C)NC(=O)[C@@H](N)CO)[C@@H](C)CC)C(N)=O (H-SLIGR[Bta]I-NH2) |
| 1.3 | CC[C@H](C)[C@H](NC(=O)[C@H](Cc1ccc(OC)c(OC)c1)NC(=O)[C@H](CCCNC(=N)N)NC(=O)CNC(=O)[C@@H](NC(=O)[C@H](CC(C)C)NC(=O)[C@@H](N)CO)[C@@H](C)CC)C(N)=O (H-SLIGR[Phe(3,4-(OMe)2)]I-NH2) |
| 0.3 | CC[C@H](C)[C@H](NC(=O)[C@H](Cc1ccc(Cl)c(Cl)c1)NC(=O)[C@H](CCCN=C(N)N)NC(=O)CNC(=O)[C@@H](NC(=O)[C@H](CC(C)C)NC(=O)[C@@H](N)CO)[C@@H](C)CC)C(N)=O (H-SLIGR[Phe(3,4-Cl2)]I-NH2) |
| 1.7 | CC[C@H](C)[C@H](NC(=O)[C@H](Cc1cccc(C#N)c1)NC(=O)[C@H](CCCNC(=N)N)NC(=O)CNC(=O)[C@@H](NC(=O)[C@H](CC(C)C)NC(=O)[C@@H](N)CO)[C@@H](C)CC)C(N)=O (H-SLIGR[Phe(3-CN)]I-NH2) |
| 3.3 | CC[C@H](C)[C@H](NC(=O)[C@H](Cc1cccc(OC)c1)NC(=O)[C@H](CCCNC(=N)N)NC(=O)CNC(=O)[C@@H](NC(=O)[C@H](CC(C)C)NC(=O)[C@@H](N)CO)[C@@H](C)CC)C(N)=O (H-SLIGR[Phe(3-OMe)]I-NH2) |
| 0.9 | CC[C@H](C)[C@H](NC(=O)[C@H](Cc1ccc(C#N)cc1)NC(=O)[C@H](CCCNC(=N)N)NC(=O)CNC(=O)[C@@H](NC(=O)[C@H](CC(C)C)NC(=O)[C@@H](N)CO)[C@@H](C)CC)C(N)=O (H-SLIGR[Phe(4-CN)]I-NH2) |
| 5 | CC[C@H](C)[C@H](NC(=O)[C@H](Cc1ccc(C(=O)O)cc1)NC(=O)[C@H](CCCNC(=N)N)NC(=O)CNC(=O)[C@@H](NC(=O)[C@H](CC(C)C)NC(=O)[C@@H](N)CO)[C@@H](C)CC)C(N)=O (H-SLIGR[Phe(4-COOH)]I-NH2) |
| 0.5 | CC[C@H](C)[C@H](NC(=O)[C@H](Cc1ccc(Cl)cc1)NC(=O)[C@H](CCCNC(=N)N)NC(=O)CNC(=O)[C@@H](NC(=O)[C@H](CC(C)C)NC(=O)[C@@H](N)CO)[C@@H](C)CC)C(N)=O (H-SLIGR[Phe(4-Cl)]I-NH2) |
| 0.6 | CC[C@H](C)[C@H](NC(=O)[C@H](Cc1ccc(I)cc1)NC(=O)[C@H](CCCNC(=N)N)NC(=O)CNC(=O)[C@@H](NC(=O)[C@H](CC(C)C)NC(=O)[C@@H](N)CO)[C@@H](C)CC)C(N)=O (H-SLIGR[Phe(4-I)]I-NH2) |
| 2.5 | CC[C@H](C)[C@H](NC(=O)[C@H](Cc1ccc(N=[N+]=[N-])cc1)NC(=O)[C@H](CCCNC(=N)N)NC(=O)CNC(=O)[C@@H](NC(=O)[C@H](CC(C)C)NC(=O)[C@@H](N)CO)[C@@H](C)CC)C(N)=O (H-SLIGR[Phe(4-N3)]I-NH2) |
| 0.6 | CC[C@H](C)[C@H](NC(=O)[C@H](CC(C)C)NC(=O)[C@@H](N)CO)C(=O)NCC(=O)N[C@@H](CCCNC(=N)N)C(=O)N[C@@H](Cc1ccc([N+](=O)[O-])cc1)C(N)=O (H-SLIGR[Phe(4-NO2)]-NH2) |

| Compound | EC50 [µM] |
| --- | --- |
| CC[C@H](C)[C@H](NC(=O)[C@H](CC(C)C)NC(=O)[C@@H](N)CO)C(=O)NCC(=O)N[C@@H](CCCNC(=N)N)C(=O)N[C@@H](CC(C)C)C(N)=O (H-SLIGRL-NH2) | 4.2 |
